Measurements published in ChEMBL document CHEMBL4811289, “Antibacterial and Cytotoxic Phenyltetracenoid Polyketides from Streptomyces morookaense” (J Nat Prod, 2021).
pIC50: −log10 of the molar value. In brackets after ≈: the same amount, converted by molar mass. Counter-ions that a name gives are not always drawn.

Experiments:
[1] = test system: A549; assay: Cytotoxicity against human A549 cells assessed as reduction in cell viability after 72 hrs by MTT assay; format: functional, cell-based; settings: Homo sapiens, A549, 72 h
[2] = test system: HeLa; assay: Cytotoxicity against human HeLa cells assessed as reduction in cell viability after 72 hrs by MTT assay; format: functional, cell-based; settings: Homo sapiens, HeLa, 72 h
[3] = test system: HepG2; assay: Cytotoxicity against human HepG2 cells assessed as reduction in cell viability after 72 hrs by MTT assay; format: functional, cell-based; settings: Homo sapiens, HepG2, 72 h
[4] = test system: MCF7; assay: Cytotoxicity against human MCF7 cells assessed as reduction in cell viability after 72 hrs by MTT assay; format: functional, cell-based; settings: Homo sapiens, MCF7, 72 h
[5] = test system: Vero; assay: Cytotoxicity against African green monkey Vero cells assessed as reduction in cell viability after 72 hrs by MTT assay; format: cell-based, Chlorocebus sabaeus; settings: Chlorocebus sabaeus, Vero, 72 h
[6] = test system: Staphylococcus aureus; assay: Antibacterial activity against methicillin-resistant Staphylococcus aureus ATCC 6548 incubated for 6 to 8 hrs by MABA; format: functional; settings: time 6-8 hrs
[7] = test system: Staphylococcus aureus; assay: Antibacterial activity against methicillin-sensitive Staphylococcus aureus incubated for 6 to 8 hrs by MABA; format: functional; settings: time 6-8 hrs
[8] = test system: Enterococcus faecium; assay: Antibacterial activity against vancomycin-sensitive Enterococcus faecium incubated for 6 to 8 hrs by MABA; format: functional; settings: time 6-8 hrs
[9] = test system: Enterococcus faecium; assay: Antibacterial activity against vancomycin-resistant Enterococcus faecium incubated for 6 to 8 hrs by MABA; format: functional; settings: time 6-8 hrs

Compound | pIC50 [1] | pIC50 [2] | pIC50 [3] | pIC50 [4] | pIC50 [5] | MIC [6] | MIC [7] | MIC [8] | MIC [9]
COc1cc2c(c(O)c1Cl)C(=O)c1c(cc3cc(O)cc(-c4c(C)c(Cl)c(O)c(Cl)c4O)c3c1O)C2(C)C | 5.34 | 5.21 | 5.35 | 5.04 | 4.90 |  |  |  | 
COc1cc(C)c(-c2cc(OC)c(Cl)c3cc4c(c(O)c23)C(=O)c2c(cc(OC)c(Cl)c2O)C4(C)C)c(O)c1 | 5.05 | 4.94 | 5.04 | 5.42 | 5.21 | > 10 mg/L | > 10 mg/L | > 10 mg/L | 
COc1cc2c(c(O)c1Cl)C(=O)c1c(cc3cc(O)cc(-c4c(C)c(Cl)c(O)c(Cl)c4OC)c3c1O)C2(C)C | 5.27 | 5.32 | 5.33 | 4.74 | 4.95 |  |  |  | 
COc1cc2c(c(O)c1Cl)C(=O)c1c(cc3c(Cl)c(OC)cc(-c4c(O)cc(O)c(Cl)c4C)c3c1O)C2(C)C | 5.28 | 5.20 | 5.21 | 5.00 | 5.10 | 2.5 mg/L (≈ 4.24 µM) | 2.5 mg/L (≈ 4.24 µM) | 1.25 mg/L (≈ 2.12 µM) | 5 mg/L (≈ 8.48 µM)
CN[C@H](CC(C)C)C(=O)N[C@H]1C(=O)N[C@@H](CC(N)=O)C(=O)N[C@H]2C(=O)N[C@H]3C(=O)N[C@H](C(=O)N[C@H](C(=O)O)c4cc(O)cc(O)c4-c4cc3ccc4O)[C@H](O)c3ccc(c(Cl)c3)Oc3cc2cc(c3O[C@@H]2O[C@H](CO)[C@@H](O)[C@H](O)[C@H]2O[C@H]2C[C@](C)(N)[C@H](O)[C@H](C)O2)Oc2ccc(cc2Cl)[C@H]1O [VANCOMYCIN] |  |  |  |  |  | 0.63 mg/L (≈ 0.435 µM) |  | 1.25 mg/L (≈ 0.863 µM) | > 40 mg/L
COc1cc(-c2c(O)cc(O)c(Cl)c2C)c2c(O)c3c(cc2c1)C(C)(C)c1cc(OC)c(Cl)c(O)c1C3=O | 5.19 | 5.28 | 5.14 | 4.97 | 4.86 | 1.25 mg/L (≈ 2.25 µM) | 2.5 mg/L (≈ 4.5 µM) | 1.25 mg/L (≈ 2.25 µM) | 5 mg/L (≈ 9 µM)
COc1cc2c(c(O)c1Cl)C(=O)c1c(cc3c(Cl)c(O)cc(-c4c(C)c(Cl)c(OC)c(Cl)c4O)c3c1O)C2(C)C | 5.25 | 5.00 | 5.06 | 4.86 | 4.92 | 2.5 mg/L (≈ 4 µM) | 2.5 mg/L (≈ 4 µM) | 2.5 mg/L (≈ 4 µM) | 5 mg/L (≈ 8.01 µM)
COc1cc(C)c(-c2cc(O)c(Cl)c3cc4c(c(O)c23)C(=O)c2c(cc(OC)c(Cl)c2O)C4(C)C)c(O)c1 | 5.55 | 5.48 | 5.49 | 5.44 | 5.05 |  |  |  | 
COc1cc2c(c(O)c1Cl)C(=O)c1c(cc3c(Cl)c(O)cc(-c4c(O)cc(O)c(Cl)c4C)c3c1O)C2(C)C | 5.51 | 5.33 | 5.28 | 5.33 | 4.84 |  |  |  | 
COc1cc(C)c(-c2cc(OC)cc3cc4c(c(O)c23)C(=O)c2c(cc(O)c(Cl)c2O)C4(C)C)c(O)c1 | 5.25 | 5.15 | 4.92 | 4.61 | 4.72 | 2.5 mg/L (≈ 4.8 µM) | 2.5 mg/L (≈ 4.8 µM) | 2.5 mg/L (≈ 4.8 µM) | 5 mg/L (≈ 9.6 µM)
COc1cc(O)c(-c2cc(O)cc3cc4c(c(O)c23)C(=O)c2c(cc(OC)c(Cl)c2O)C4(C)C)c(C)c1Cl | 5.59 | 5.43 | 5.43 | 5.51 | 5.46 |  |  |  | 
COc1cc(C)c(-c2cc(O)cc3cc4c(c(O)c23)C(=O)c2c(cc(OC)c(Cl)c2O)C4(C)C)c(O)c1 | 5.47 | 5.54 | 5.49 | 5.52 | 5.48 |  |  |  | 
COc1cc(C)c(-c2cc(O)cc3cc4c(c(O)c23)C(=O)c2c(cc(OC)c(Cl)c2OC)C4(C)C)c(O)c1 | 5.48 | 5.41 | 5.24 | 5.30 | 5.52 | 2.5 mg/L (≈ 4.67 µM) | 2.5 mg/L (≈ 4.67 µM) | 2.5 mg/L (≈ 4.67 µM) | 2.5 mg/L (≈ 4.67 µM)
COc1cc(-c2c(O)cc(OC)c(Cl)c2C)c2c(O)c3c(cc2c1)C(C)(C)c1cc(OC)c(Cl)c(O)c1C3=O | 5.11 | 4.65 | 4.99 | 4.74 | 4.74 | > 10 mg/L | > 10 mg/L | > 10 mg/L | 
COc1cccc2c1C(=O)c1c(O)c3c(c(O)c1C2=O)C[C@@](O)(C(=O)CO)C[C@@H]3O[C@H]1C[C@H](N)[C@H](O)[C@H](C)O1 [DOXORUBICIN HYDROCHLORIDE] | 6.16 | 6.51 | 6.10 | 5.99 |  |  |  |  | 
